Laboratory results: paper PMC9034162, “Development of pyrazoline-based derivatives as aminopeptidase N inhibitors to overcome cancer invasion and metastasis” (RSC Advances, 2021)

How the values were obtained:
porcine APN = target: T1, porcine APN (Sus scrofa, UniProt P15145); test: Enzymatic inhibition assay against APN in vitro; assay type: biochemical; settings: for IC50: soluble APN from porcine kidney microsomes, L-Leu-p-nitroanilide substrate, pH 7.2, 37 °C 30 min, mean ± SD, triplicate
T1 construct: soluble APN from porcine kidney microsomes (Biocol) was used as enzyme; purchased Biocol; host or cells: porcine kidney microsomes (tissue-derived)
T1 sequence (P15145 1-963): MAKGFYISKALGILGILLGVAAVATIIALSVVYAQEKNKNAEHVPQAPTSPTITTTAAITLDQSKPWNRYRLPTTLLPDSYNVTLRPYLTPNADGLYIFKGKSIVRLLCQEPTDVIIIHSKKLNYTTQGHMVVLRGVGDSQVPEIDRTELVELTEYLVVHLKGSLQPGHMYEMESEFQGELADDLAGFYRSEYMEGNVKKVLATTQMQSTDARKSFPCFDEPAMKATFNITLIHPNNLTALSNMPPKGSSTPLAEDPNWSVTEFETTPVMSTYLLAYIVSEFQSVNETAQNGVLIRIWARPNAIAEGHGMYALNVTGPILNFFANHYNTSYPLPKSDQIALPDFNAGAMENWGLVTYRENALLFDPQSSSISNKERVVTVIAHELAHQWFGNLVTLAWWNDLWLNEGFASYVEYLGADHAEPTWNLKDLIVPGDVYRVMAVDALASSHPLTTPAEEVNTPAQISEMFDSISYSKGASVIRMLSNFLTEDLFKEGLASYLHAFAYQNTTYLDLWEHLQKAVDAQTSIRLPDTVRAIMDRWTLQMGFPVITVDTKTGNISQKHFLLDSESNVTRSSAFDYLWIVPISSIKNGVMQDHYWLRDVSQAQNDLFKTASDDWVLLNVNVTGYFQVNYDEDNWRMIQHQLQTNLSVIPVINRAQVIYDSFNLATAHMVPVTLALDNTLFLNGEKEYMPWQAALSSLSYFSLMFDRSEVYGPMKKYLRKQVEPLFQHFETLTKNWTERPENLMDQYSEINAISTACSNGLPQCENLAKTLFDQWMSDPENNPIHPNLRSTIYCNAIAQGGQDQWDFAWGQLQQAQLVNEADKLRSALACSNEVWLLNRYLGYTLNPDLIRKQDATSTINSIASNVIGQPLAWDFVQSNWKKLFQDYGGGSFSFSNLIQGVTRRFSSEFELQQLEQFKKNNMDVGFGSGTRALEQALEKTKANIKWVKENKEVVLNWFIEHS
Method: In the enzymatic inhibition assay against APN in vitro, L-Leu-p-nitroanilide was used as substrate and soluble APN from porcine kidney microsomes (Biocol) was used as enzyme. 50 mM PBS with pH 7.2 was used as buffer solution. Briefly, inhibitors (40 μL), PBS (145 μL), substrate (5 μL, 16 mmol L^−1) and APN solution (10 μL, 0.15 IU mL^−1) were added into 96-well plates. The mixture was incubated at 37 °C for 30 min. The optical density resulting from the hydrolysis product p-nitroanilide was measured at 405 nm with a plate reader (Varioskan, Thermo, USA).

K562 = test: Anti-proliferation assay (MTT); assay type: cell-based; settings: Homo sapiens, 48 h, mean ± SD, triplicate, read-out: IC50 anti-proliferative, K562
Method: (§1) The anti-proliferative activities of the selected compounds were evaluated using the MTT method. All the tumor cell lines were cultured in RPMI-1640 medium with 10% FBS at 37 °C in 5% CO2 humidified incubator. Firstly, cells (100 μL) were plated in 96-well plates and allowed to grow for 4 h. Then different concentrations of inhibitors (100 μL) were added. After incubation for 48 h, MTT solution (20 μL per well, 5 mg mL^−1) was added and the mixture was incubated for additional 4 h. Subsequently, the medium were poured off and DMSO (200 μL) was added to dissolve the formed formazan. After shaking for 15 min, the optical density values were measured using a plate reader at 570 nm (Varioskan, Thermo, USA).

U937 = test: Anti-proliferation assay (MTT); assay type: cell-based; settings: Homo sapiens, U-937, 48 h, mean ± SD, triplicate, read-out: IC50 anti-proliferative, U937
Method: as §1

PLC/PRF/5 = test: Anti-proliferation assay (MTT); assay type: cell-based; settings: Homo sapiens, 48 h, mean ± SD, triplicate, read-out: IC50 anti-proliferative, PLC/PRF/5
Method: as §1

ES-2 = test: Anti-proliferation assay (MTT); assay type: cell-based; settings: Homo sapiens, 48 h, mean ± SD, triplicate, read-out: IC50 anti-proliferative, ES-2
Method: as §1

PC-3 = test: Anti-proliferation assay (MTT); assay type: cell-based; settings: Homo sapiens, 48 h, mean ± SD, triplicate, read-out: IC50 anti-proliferative, PC-3
Method: as §1

HepG2 = test: Anti-proliferation assay (MTT); assay type: cell-based; settings: Homo sapiens, 48 h, mean ± SD, triplicate, read-out: IC50 anti-proliferative, HepG2
Method: as §1

[1] = Body weight monitoring in H22 pulmonary metastasis model; assay type: in vivo; settings: 60 mg kg^−1 d^−1 intraperitoneally for 12 days, Kunming mice, weights every two days
Method: (§2) All animal procedures were performed in accordance with the Guidelines for Care and Use of Laboratory Animals of Shandong University and approved by the Animal Ethical and Welfare Committee (AEWC, China). The mice hepatoma H22 cell line was our laboratory-owned and 6 week old male Kunming mice were purchased from Center for New Drugs Evaluation of Shandong University, China. Firstly, H22 cells suspension (0.1 mL, 7.5 × 10^7 mL^−1) was injected via tail vein to establish a mice H22 pulmonary metastasis model. Subsequently, the mice were randomly divided into treatment and control groups. […] The body weights were monitored every two days. Finally, the mice were sacrificed and the lungs were removed and fixed in Bouin's solution. After 24 h, the metastasis nodes on the surface of pulmonary lobes were counted.

ES-2 cells invasion = test: In vitro anti-invasion assay (matrigel transwell); assay type: cell-based
Method: The carbonate membrane coated with matrigel in the upper chamber of transwell insert (BD BioCoat™ Matrigel™ Invasion Chambers) was rehydrated with RPMI-1640 culture medium (500 μL) containing 1% FBS for 2 h. After removing the medium, the upper and lower chambers were added the RPMI-1640 culture medium (100 μL) with 1% FBS containing the tested compounds and the RPMI-1640 culture medium (750 μL) with 10% FBS, respectively. Then, ES-2 cells suspending in the RPMI-1640 culture medium containing 1% FBS (400 μL, 2.5 × 10^5 cells per mL) were added into the upper chambers. The system was placed at 37 °C in 5% CO2 for 8 h. The ES-2 cells could invade the matrigel and migrate from the upper surface of the carbonate membrane into the lower surface of that. ES-2 cells on the upper surface of the carbonate membrane were erased by cotton swabs. Then, ES-2 cells on the lower surface were fixed with methanol, stained with 0.1% crystal violet, of which the photographs were taken under an inverted microscope. The average numbers of ES-2 cells in five random fields (100×) per well were counted. The inhibition rate of ES-2 cells invasion was calculated as follows: (A − B)/A × 100%, A means the number of ES-2 cells in the control group, and B means the number of ES-2 cells in the treated group. The experiments were repeated three times.

mice H22 hepatoma cells = test: In vivo anti-metastatic assay, mice H22 hepatoma cell pulmonary metastasis model; settings: 60 mg kg^−1 d^−1 intraperitoneally for 12 days, Kunming mice, H22 cells via tail vein
Method: as §2

SMILES	melting point	IC50 (porcine APN)	further results
NC(=O)N1N=C(c2ccc(Br)cc2)CC1c1ccccc1OCC(=O)NO (stereo not shown) [2c]	190.2 to 192.2 °C	2100 ± 200 nM	–
COc1ccccc1C1=NN(C(N)=O)C(c2ccccc2OCC(=O)NO)C1 (stereo not shown) [2d]	198.4 to 200.2 °C	270 ± 10 nM	–
COc1cccc(C2=NN(C(N)=O)C(c3ccccc3OCC(=O)NO)C2)c1 (stereo not shown) [2e]	208.5 to 210.3 °C	320 ± 30 nM	–
COc1ccc(C2=NN(C(N)=O)C(c3ccccc3OCC(=O)NO)C2)cc1 (stereo not shown) [2f]	168.4 to 170.2 °C	12500 ± 800 nM	–
NC(=O)N1N=C(c2ccccc2F)CC1c1ccccc1OCC(=O)NO (stereo not shown) [2h]	124.4 to 126.1 °C	150 ± 10 nM	–
NC(=O)N1N=C(c2ccc(Cl)cc2Cl)CC1c1ccccc1OCC(=O)NO (stereo not shown) [2l]	196.3 to 198.2 °C	420 ± 30 nM	–
NC(=O)N1N=C(c2cccc3ccccc23)CC1c1ccccc1OCC(=O)NO (stereo not shown) [2m]	204.2 to 206.2 °C	210 ± 40 nM	fold more potent against APN than 2n (porcine APN; IC50 ratio vs 2n): over 10 fold
NC(=O)N1N=C(c2ccc3ccccc3c2)CC1c1ccccc1OCC(=O)NO (stereo not shown) [2n]	166.2 to 168.2 °C	2500 ± 100 nM	–
CC(C)C[C@H](NC(=O)[C@@H](O)[C@H](N)Cc1ccccc1)C(=O)O [Bestatin, reference compound]	–	–	IC50 (K562): > 500000 nM; IC50 (U937): > 500000 nM; IC50 (PLC/PRF/5): > 500000 nM; IC50 (ES-2): > 500000 nM; IC50 (PC-3): > 500000 nM; IC50 (HepG2): > 500000 nM; body weight loss [1]: no significant body weight loss
NC(=O)N1N=C(c2ccccc2)CC1c1ccccc1OCC(=O)NO (stereo not shown) [compound 1, reference compound]	–	150 ± 20 nM	–
COc1ccccc1C1=NN(C(N)=O)C(c2ccccc2OCC(=O)NN)C1 (stereo not shown) [compound 2o, 5-(2-(2-Hydrazinyl-2-oxoethoxy)phenyl)-3-(2-methoxyphenyl)-4,5-dihydro-1H-pyrazole-1-carboxamide]	156.6 to 158.2 °C	30200 ± 1900 nM	–

Further molecules by falling IC50 (porcine APN), results first:

melting point	IC50 (porcine APN)	SMILES	further results
164.4 to 166.4 °C	260 ± 50 nM	NC(=O)N1N=C(c2cccc(Br)c2)CC1c1ccccc1OCC(=O)NO (stereo not shown) [2b]	–
168.4 to 170.2 °C	150 ± 30 nM	NC(=O)N1N=C(c2ccccc2Br)CC1c1ccccc1OCC(=O)NO (stereo not shown) [compound 2a, 3-(2-Bromophenyl)-5-(2-(2-(hydroxyamino)-2-oxoethoxy)phenyl)-4,5-dihydro-1H-pyrazole-1-carboxamide]	–
186.2 to 188.2 °C	120 ± 10 nM	NC(=O)N1N=C(c2c(F)cccc2F)CC1c1ccccc1OCC(=O)NO (stereo not shown) [2j]	–
144.5 to 146.2 °C	110 ± 10 nM	Cc1ccccc1C1=NN(C(N)=O)C(c2ccccc2OCC(=O)NO)C1 (stereo not shown) [2g]	–
172.2 to 174.1 °C	100 ± 10 nM	NC(=O)N1N=C(c2ccccc2Cl)CC1c1ccccc1OCC(=O)NO (stereo not shown) [compound 2i]	–
200.2 to 202.2 °C	64 ± 10 nM	NC(=O)N1N=C(c2c(Cl)cccc2Cl)CC1c1ccccc1OCC(=O)NO (stereo not shown) [compound 2k]	IC50 (K562): 15600 ± 2200 nM; IC50 (U937): 49200 ± 3800 nM; IC50 (PLC/PRF/5): 106000 ± 4700 nM; IC50 (ES-2): 141000 ± 3800 nM; IC50 (PC-3): 56100 ± 3100 nM; IC50 (HepG2): 101000 ± 4900 nM; anti-invasion activity at 10 μM compared with 100 μM of bestatin (ES-2 cells invasion; ES-2 cells, 10 μM of 2k vs 100 μM bestatin): comparable, if not better; anti-invasion effect at 100 μM compared with bestatin (ES-2 cells invasion; ES-2 cells, both at 100 μM, P < 0.05): significantly better than that of bestatin; inhibition of ES-2 cells invasion (ES-2 cells invasion; transwell with matrigel, 8 h, several concentrations): inhibit the ES-2 cells invasion in a concentration dependent manner; in vivo anti-metastasis effect (mice H22 hepatoma cells): effectively prevent the pulmonary metastasis; fold more potent against APN than bestatin (porcine APN; IC50 ratio vs bestatin): over 140 fold; fold more potent against APN than compound 1 (porcine APN; IC50 ratio vs compound 1): > 2 fold; body weight loss [1]: no significant body weight loss
